Values quoted from earlier work, collected in patent publication US20070185035A1, “ENHANCED MUCOSAL ADMINISTRATION OF NEUROPROTECTIVE PEPTIDES” (Nastech Pharmaceutical Company Inc., priority 2005, published 2007).
Where two headings read alike, the source gives them in different places. Values belong to the compound of their own block, whether it stands above or below them.

Experiments:
ciliary motility = conditions: without obvious ultrastructural lesions
[1] = anesthetized rats

effectiveness in enzyme inhibition relative to bestatin (aminopeptidases): more than 100 times
effectiveness in enzyme inhibition relative to puromycin (aminopeptidases): more than 1000 times
Compound: CC(C)CC(N)B(O)O (centres unmarked) [boro-leucine]

Compound: 2-alkyl-4-hydroxyquinolines [pyo compound]
concentration producing ciliostasis (ciliary motility): 50 µg/mL

Compound: human growth hormone: human growth hormone given nasally to rats with or without N-acetyl-L-cysteine
nasal bioavailability ([1]; with N-acetyl-L-cysteine (ACS)): 12.2%
nasal bioavailability ([1]; without N-acetyl-L-cysteine): 7.5%
